Measurements taken from patent US7741464B2, “Compositions and methods of using CRMP-1 and its fragments for treating cancer” (Advpharma Inc., priority 2007, dated 2010).
Where two headings read alike, the source gives them in different places.

Assays:
[1] = tested on: MCF-7 transient transfectants; assay: Chemosensitivity of transient transfectants (cell counting); type: cell-based; settings: Homo sapiens, MCF7, 72 h, read-out: IC50 of chemical agent
Experimental: (§1) Six human cancer cell lines, including human colon cancer cell lines Caco-2, CC-M1, DLD-1; human prostate cancer cell lines DU145, PC-3; and human breast cancer cell line MCF-7, were tested in an experiment on improvement of chemosensitivity. Two expression plasmids, pNCRMP1 and pNCN3, and the pCI-neo vector (control plasmid), were used for transfection, respectively. The general cultivation conditions and transfection procedures were the same as described in Example 3.
(§2) Treatment of transient transfected cell lines using chemical agent was immediately performed as follows, and quantification of viable cells was performed by counting using hemocytometer after 3-days incubation at 37° C.: • (1) Three types of transient transfected human colorectal cancer cells were treated with 5-fluorouracil; • (2) The transient transfected human prostate cancer cell line DU145 was treated with Adriamycin™ (doxorubicin), cyclophosphamide and etoposide; • (3) The transient transfected human prostate cancer cell line PC3 was treated with cyclophosphamide, etoposide, and paclitaxel; and, • (4) The transient transfected human breast cancer cell line MCF-7 was treated with Adriamycin™ (doxorubicin) and paclitaxel.

[2] = tested on: PC-3 transient transfectants; assay: as above; type: cell-based; settings: Homo sapiens, 72 h, read-out: IC50 of chemical agent
Experimental: as §1, §2

PZ-HPV-7 cells [3] = assay: Chemosensitivity (MTT cytotoxicity) assay; type: cell-based; settings: Homo sapiens; PZ-HPV-7, MTT; read-out: IC50 of chemical agent
Experimental: Three agents, including caffeic acid phenethyl ester (CAPE; Sigma, US), Adriamycin™ (doxorubicin) (Pharmacia & Upjohn S.P.A. Milan, Italy), and paclitaxel (Taxol; Bristol-Myers Squibb Co., Wallingford, Conn.), were dissolved in DMSO (dimethyl sulfoxide; Sigma) for preparation of stock solution, respectively. A serial dilution was prepared with DPBS buffer for chemosensitivity tests. […] Both types of prostate stable transfectants were only treated with paclitaxel for eight concentrations ranging from 0.1 mM to 1.28 nM with 1/5 dilution each step.

[4] = tested on: DU145 stable transfectants; assay: Chemosensitivity (MTT cytotoxicity) of stable transfectants; type: cell-based; settings: Homo sapiens, read-out: IC50 of chemical agent
Text: (§3) Three human cancer cell lines, including lung cancer cell line H520 and two human prostate cancer cell lines (PC-3 and DU145) were applied for selection of stable transfectants. Four expression plasmids, including pNCRMP1, pNCN1, pNCN3, and pNCN4, and the pCI-neo vector (as control plasmid) were used for transfection, respectively. The general cultivation condition and transfection procedures were the same as described in Example 3. The transfected cells were further cultivated under the same conditions as their parental cell lines and selected with 0.6-1 mg antibiotic G418 per ml (Kao et al., Oncogene 16: 546-554 (1998); Xiaolin et al, Cancer Research 65: 9762-9770 (2005)).
(§4) Three agents, including caffeic acid phenethyl ester (CAPE; Sigma, US), Adriamycin™ (doxorubicin) (Pharmacia & Upjohn S.P.A. Milan, Italy), and paclitaxel (Taxol; Bristol-Myers Squibb Co., Wallingford, Conn.), were dissolved in DMSO (dimethyl sulfoxide; Sigma) for preparation of stock solution, respectively. A serial dilution was prepared with DPBS buffer for chemosensitivity tests. The human lung squamous carcinoma stable transfectants H520 were treated with both CAPE and Adriamycin™ (doxorubicin) for four different concentrations, e.g. 0.05, 0.01, 0.002, and 0.0004 mM, while the administering of paclitaxel was performed at different concentrations, e.g. 1000, 200, 40, and 8 nM. Both types of prostate stable transfectants were only treated with paclitaxel for eight concentrations ranging from 0.1 mM to 1.28 nM with 1/5 dilution each step.
(§5) MTT (3-(4,5-dimethylthiazol-2-yl)-2,5-diphenyltetrazolium bromide; Sigma, Inc.) assay (Monks et al., J. Natl. Cancer Inst. 83:757-766 (1991); Paull et al, J. Natl. Cancer Inst. 81:1088-1092 (1989)) was applied for studying the cytotoxic effect of indicated agent. The absorbance was measured both at 545 nm and at 690 nm (served as reference) using the 96-well spectrophotometer reader (Emax, Molecular Device Inc., California, US) (Chen et al., Yi Xue Za Zhi (Taipei) 46:7-16 (1990)). The relative growth inhibition was calculated as follows: Relative growth inhibition=100%×(1−(OD545nm (Treated cells)−OD690nm(Treated cells))÷(OD545nm(untreated cells)−OD690nm(untreated cells)))
(§6) The 50% inhibition concentration (IC50) was determined after graphical plotting of spectrophotometric measurements and interpolation by EXCEL software.

[5] = tested on: H520 stable transfectants; assay: as above; type: cell-based; settings: Homo sapiens, read-out: IC50 of chemical agent
Text: as §3, §4, §5, §6

PC-3 cells = assay: Cytotoxic effect of recombinant e-rCN3 protein; type: cell-based, human; settings: 5 μM applied twice for 6 hours with an interval of 16 hours
Experimental: (§7) The growth inhibition effect of recombinant e-rCN3 protein was studied with five human cell lines, including the human colon cancer cell line CC-M1, the human breast cancer cell line MCF-7, two human prostate cancer cell lines PC-3 and DU145, and the human prostate epithelium cell line PZ-HPV-7. […] The cytotoxicity assay were performed using MTT method as described by Monks et al. (J. National Cancer Institute 83:757-767 (1991)) or using cell counting-based Hemocytometer method (R. Ian Freshney, WILEY-LISS: 186, 309-312 (2000)) as described in Example 3 and Example 9. Five micromolar (μM) e-rCN3 was applied twice on three prostate cell lines for 6 hours with an interval of 16 hours, while the human colon cancer cell and breast cancer cells were treated with three cycles.

CC-M1 cells = assay: Cytotoxic effect of recombinant e-rCN3 protein; type: cell-based, human; settings: 5 μM, three treatment cycles
Experimental: as §7

MCF-7 cells = assay: Cytotoxic effect of recombinant e-rCN3 protein; type: cell-based, human; settings: 5 μM, three treatment cycles
Experimental: as §7

PZ-HPV-7 cells [6] = assay: Cytotoxic effect of recombinant e-rCN3 protein; type: cell-based, human; settings: 5 μM applied twice for 6 hours with an interval of 16 hours
Experimental: as §7

| IC50 ([1]; transient transfectant MCF-7/pCIneo (control plasmid), 3-days incubation) [nM] | IC50 ([1]; transient transfectant MCF-7/pNCN3, 3-days incubation) [nM] | IC50 ([1]; transient transfectant MCF-7/pNCRMP1, 3-days incubation) [nM] | IC50 ([2]; transient transfectant PC-3/pCIneo (control plasmid), 3-days incubation) [nM] | IC50 ([2]; transient transfectant PC-3/pNCN3, 3-days incubation) [nM] | IC50 ([2]; transient transfectant PC-3/pNCRMP1, 3-days incubation) [nM] | Molecule | IC50 (PZ-HPV-7 cells [3]) [nM] | IC50 ([4]; DU-145, stable transfectant DU145/pCI-neo/7 (control plasmid), MTT) [nM] | IC50 ([4]; DU-145, stable transfectant DU145/pNCRMP1/2, MTT) [nM] | IC50 ([5]; NCI-H520, stable transfectant H520/pCI-neo/1 (control plasmid), MTT) [nM] | IC50 ([5]; NCI-H520, stable transfectant H520/pNCN1/1, MTT) [nM] | IC50 ([5]; NCI-H520, stable transfectant H520/pNCN3/1, MTT) [nM] | IC50 ([5]; NCI-H520, stable transfectant H520/pNCN4/1, MTT) [nM] | IC50 ([5]; NCI-H520, stable transfectant H520/pNCRMP1/1, MTT) [nM] | growth inhibition effect (PC-3 cells) | growth inhibition effect (CC-M1 cells) | growth inhibition effect (MCF-7 cells) | growth inhibition effect (PZ-HPV-7 cells [6]) |
| --- | --- | --- | --- | --- | --- | --- | --- | --- | --- | --- | --- | --- | --- | --- | --- | --- | --- | --- |
| < 1 | 44 | < 1 | 87 | 10 | 69 | CC(=O)O[C@H]1C(=O)[C@@]2(C)[C@H]([C@H](OC(=O)c3ccccc3)[C@]3(O)C[C@H](OC(=O)[C@H](O)[C@@H](NC(=O)c4ccccc4)c4ccccc4)C(C)=C1C3(C)C)[C@]1(OC(C)=O)CO[C@@H]1C[C@@H]2O [paclitaxel] | 6530 | 8000 | 20 | 31 | 12 | < 8 | < 8 | 12 |  |  |  |  |
|  |  |  |  |  |  | e-rCN3: recombinant CN3 domain of hCRMP-1 (amino acids 208 to 480) expressed in E. coli from pE22bCN3 |  |  |  |  |  |  |  |  | approximately 40% | over 60% | over 60% | no growth inhibition effect |
